Test results from patent publication US6610675B1 (priority 1980, dated 2003).

Columns and labels:
blanching in humans = experiment: McKenzie-type human blanching studies; assay type: in vivo; details: forearm, 6 hours occlusion
Protocol: McKenzie-type human blanching studies were undertaken to study the blanching effects of a representative test compound of the invention, chloromethyl 17α-ethoxycarbonyloxy-11β-hydroxyandrost-4-en-3-one-17β-carboxylate.
The test compound was dissolved in ethanol/isopropyl myristate (90/10 or 70/30) at 0.03, 0.01, 0.003, 0.001 and 0.0003 M concentrations. 50 Microliter aliquots of each solution were applied to separate gauze portions of a bandage of the type commonly used for allergy testing and the bandage was applied to the forearm. After 6 hours of occlusion, the bandage was removed.

thymus weight in rats = experiment: Thymus involution test (topically administered steroids, thymus weight in rats)
Protocol: The test animals were female Sprague/Dawley rats weighing approximately 40-45 grams each. One side of each ear of each rat was treated with a total of 25 microliters of a solution (ethanol/isopropyl myristate or acetone/isopropyl myristate, 90/10) containing the amount of test compound indicated below. Animals which were treated identically, save for omission of the test compound, served as controls. After 24 hours, all rats were sacrificed and weighed, and their thymi were removed and weighed.
The lower the weight of the thymi, the greater the systemic activity.

[1] = 0.75 μmol topical on ear, after 24 hours

Total Weight per Rat, % Gain ± SD (thymus weight in rats; [1]): 24 ± 7%
Total Weight per Rat, Final (thymus weight in rats; [1]): 61.15 g
mg Thymus ± SD / 100 g Rat (thymus weight in rats; [1]): 274 ± 45 mg/100 g
Structure (SMILES): C[C@]12CCC(=O)C=C1CC[C@@H]1[C@@H]2[C@@H](O)C[C@@]2(C)[C@H]1CC[C@]2(O)C(=O)CO [Hydrocortisone]
blanching (blanching in humans; 0.03 to 0.0003 M, 50 microliter, read 1 to 5 hours after removal): blanching was not observed at concentrations of hydrocortisone below 0.03 M
concentration causing approximately the same degree of blanching (blanching in humans; direct comparison): ~0.03 M
decrease in thymus weight compared to the control (in words) (thymus weight in rats; 0.75 μmol topical): causes a significant decrease in thymus weight compared to the control
